pIC50: −log10 of the molar value.
Experiments:
Serine protease 1 = Serine protease 1 (Homo sapiens, UniProt P07477); experiment: Compound was tested for inhibitory activity against trypsin
Prothrombin = Prothrombin (Homo sapiens, UniProt P00734); experiment: Compound was tested for inhibitory activity against thrombin
Caco-2 = details: Homo sapiens
Description: Compound was tested for its effect on increasing the permeability of Caco-2 cells

Chain of Serine protease 1 (P07477 whole entry): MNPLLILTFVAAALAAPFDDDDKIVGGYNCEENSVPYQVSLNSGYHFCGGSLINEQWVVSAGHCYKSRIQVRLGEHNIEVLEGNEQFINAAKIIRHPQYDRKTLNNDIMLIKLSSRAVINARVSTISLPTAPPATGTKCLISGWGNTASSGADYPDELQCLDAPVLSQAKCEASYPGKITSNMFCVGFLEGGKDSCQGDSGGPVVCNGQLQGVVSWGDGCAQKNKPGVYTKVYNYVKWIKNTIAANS

SMILES | pIC50 (Serine protease 1) | pIC50 (Prothrombin) | Papp (Caco-2) [nm/s]
COc1cc(C)c(S(=O)(=O)N[C@@H](CC(=O)OC(C)(C)C)C(=O)NC(Cc2ccc3c(N)nccc3c2)C(=O)N2CCCCC2)c(C)c1C (stereo partly specified) | 3.42 |  | 
Cc1ccc(S(=O)(=O)NCC(=O)NC(Cc2ccc3c(N)nccc3c2)C(=O)N2CCCCC2)cc1 (stereo unspecified) |  | 3.45 | 
Nc1nccc2cc(CC(NC(=O)CNS(=O)(=O)c3ccc4ccccc4c3)C(=O)N3CCCCC3)ccc12 (stereo unspecified) | 3.59 | 4.26 | 19
Cc1c(C)c(S(=O)(=O)NCC(=O)NC(Cc2ccc3c(N)nccc3c2)C(=O)N2CCCCC2)c(C)c2c1OC(C)(C)CC2 (stereo unspecified) |  |  | 37

From ChEMBL document CHEMBL1132055, “1-Aminoisoquinoline as benzamidine isoster in the design and synthesis of orally active thrombin inhibitors” (Bioorg Med Chem Lett, 1999)
